Measurements taken from BindingDB's records for PubMed 7965790 (University of Nebraska, 1994).

Assays:
[1] = target: T1, Alpha-2A adrenergic receptor [16-465] (Rattus norvegicus, UniProt P22909)
T1 construct: 16-465
T1 sequence (P22909 whole entry): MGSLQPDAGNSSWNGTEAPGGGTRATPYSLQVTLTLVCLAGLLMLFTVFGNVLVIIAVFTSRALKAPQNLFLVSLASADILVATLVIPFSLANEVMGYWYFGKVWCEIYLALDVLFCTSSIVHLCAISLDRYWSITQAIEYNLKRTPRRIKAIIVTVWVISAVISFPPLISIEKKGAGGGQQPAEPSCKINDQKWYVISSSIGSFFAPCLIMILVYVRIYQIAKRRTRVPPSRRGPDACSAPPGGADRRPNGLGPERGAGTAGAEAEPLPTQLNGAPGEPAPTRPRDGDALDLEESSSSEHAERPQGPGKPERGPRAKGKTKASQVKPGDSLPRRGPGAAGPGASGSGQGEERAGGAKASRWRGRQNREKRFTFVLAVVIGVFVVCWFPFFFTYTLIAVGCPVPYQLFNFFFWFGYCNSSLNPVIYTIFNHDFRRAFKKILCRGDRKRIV

[2] = target: T2, Alpha-2A adrenergic receptor (Bos taurus, UniProt Q28838)
T2 sequence (Q28838 whole entry): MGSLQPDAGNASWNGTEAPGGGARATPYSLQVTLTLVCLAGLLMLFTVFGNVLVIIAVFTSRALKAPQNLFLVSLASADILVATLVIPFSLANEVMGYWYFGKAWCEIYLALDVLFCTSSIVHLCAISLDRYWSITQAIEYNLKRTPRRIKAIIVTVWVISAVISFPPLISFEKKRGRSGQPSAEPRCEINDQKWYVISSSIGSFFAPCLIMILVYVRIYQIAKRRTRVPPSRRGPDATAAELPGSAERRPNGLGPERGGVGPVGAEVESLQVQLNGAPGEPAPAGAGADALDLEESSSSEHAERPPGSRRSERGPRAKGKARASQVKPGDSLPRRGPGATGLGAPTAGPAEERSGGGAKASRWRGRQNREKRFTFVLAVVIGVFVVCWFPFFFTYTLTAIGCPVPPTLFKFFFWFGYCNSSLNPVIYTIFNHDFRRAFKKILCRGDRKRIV

[3] = target: T3, Alpha-2A adrenergic receptor (Sus scrofa, UniProt P18871)
T3 sequence (P18871 whole entry): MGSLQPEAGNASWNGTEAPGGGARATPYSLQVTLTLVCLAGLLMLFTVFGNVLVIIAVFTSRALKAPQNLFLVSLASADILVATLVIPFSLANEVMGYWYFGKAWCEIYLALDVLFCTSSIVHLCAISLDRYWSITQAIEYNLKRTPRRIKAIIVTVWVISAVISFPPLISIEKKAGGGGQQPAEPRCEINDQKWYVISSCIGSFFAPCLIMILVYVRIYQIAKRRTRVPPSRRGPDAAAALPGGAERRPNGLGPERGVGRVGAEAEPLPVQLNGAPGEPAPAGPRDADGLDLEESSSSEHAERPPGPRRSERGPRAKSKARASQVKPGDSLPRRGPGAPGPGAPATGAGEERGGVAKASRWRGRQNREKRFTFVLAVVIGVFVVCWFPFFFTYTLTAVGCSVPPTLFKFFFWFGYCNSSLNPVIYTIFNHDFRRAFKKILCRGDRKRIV

| SMILES | Ki [1] [nM] | Ki [2] [nM] | Ki [3] [nM] |
| --- | --- | --- | --- |
| O=C1NCN(c2ccccc2)C12CCN(CC1COc3ccccc3O1)CC2 (centres undefined) [8-(2,3-Dihydro-benzo[1,4]dioxin-2-ylmethyl)-1-phenyl-1,3,8-triaza-spiro[4.5]decan-4-one] | 70 | 10.5 | 3.36 |
| COC(=O)C1=CO[C@@H](C)[C@@H]2CN3CCc4c([nH]c5ccccc45)[C@H]3C[C@H]12 [AKUAMMIGINE] | 1210 | 1830 | – |
| COC(=O)C1=COC(C)C2CN3CCc4c([nH]c5ccccc45)C3CC12 (centres undefined) [Ajmalicine] | 289 | 653 | 10 |
| CN1C[C@H](Cn2ccnc2-c2ccccc2)C[C@@H]2c3cccc4[nH]c(Br)c(c34)C[C@H]21 [BAM-1303] | 35 | 149 | 0.52 |
| COc1ccccc1N1CCN(CCC2C(=O)c3ccccc3C(C)(C)C2=O)CC1 (centres undefined) [NSC_122211] | 749 | 352 | 365 |
| COc1cccc(OC)c1OCCNCC1Oc2ccccc2OC1c1ccccc1 (centres undefined) [NSC_185453] | 46 | 13.2 | 0.95 |
| NCC(O)c1ccc(O)c(O)c1 (stereo not drawn) [Noradrenaline,(+)] | – | 1090 | 371 |
| CC(C)=CCOc1ccc(Cl)c2c1CCN(C)CC2 [SK&F-104078] | 248 | 153 | 35 |
| CN(C)CCCN1c2ccccc2Sc2ccc(Cl)cc21 [[3-(2-Chloro-phenothiazin-10-yl)-propyl]-dimethyl-amine(Chlorpromazine)] | – | 884 | 64 |
| COc1cc2nc(N3CCN(C(=O)c4ccco4)CC3)nc(N)c2cc1OC [[3H]-Minipress] | – | 1370 | 1160 |

Now from value to compound:

| Ki [1] [nM] | Ki [2] [nM] | Ki [3] [nM] | SMILES |
| --- | --- | --- | --- |
| – | – | 2.87 | Cc1ccc(N(CC2=NCCN2)c2cccc(O)c2)cc1 [SMR000059054] |
| – | 35 | 3.19 | Cc1cc(C(C)(C)C)c(O)c(C)c1CC1=NCCN1 [SMR000059324] |
